Patent US9850256B2, “Antibacterial basic biaromatic derivatives with aminoalkoxy substitution” (priority 2014, dated 2017)
In brackets after ≈: the same amount, converted by molar mass.

Assays:
Assay in all cases: Bacterial growth minimal inhibitory concentration (microdilution, cation-adjusted Mueller-Hinton Broth)
S. aureus A798 = type: cell-based, Staphylococcus aureus; conditions: Staphylococcus aureus, A798; multiply-resistant strain (methicillin- and quinolone-resistant)
Procedure: (§1) Minimal Inhibitory Concentrations (MICs; mg/L) were determined in cation-adjusted Mueller-Hinton Broth by a microdilution method following the description given in “Methods for Dilution Antimicrobial Susceptibility Tests for Bacteria that Grow Aerobically”, Approved standard, 7th ed., Clinical and Laboratory Standards Institute (CLSI) Document M7-A7, Wayne, Pa., USA (2006).
(§2) All Example compounds were tested against several Gram positive and Gram negative bacteria. […] Staphylococcus aureus A798 is a multiply-resistant strain (methicillin- and quinolone-resistant), Klebsiella pneumoniae T6474 is a multiply-resistant strain (penicillin-, cephalosporin- and in particular quinolone-resistant), while E. coli ATCC25922 and Pseudomonas aeruginosa ATCC 27853 are quinolone-sensitive strains.

E. coli ATCC25922 = type: cell-based; conditions: Escherichia coli, ATCC25922; quinolone-sensitive strain
Procedure: as §1, §2

K. pneumoniae T6474 = type: cell-based, Klebsiella pneumoniae; conditions: Klebsiella pneumoniae, T6474; multiply-resistant strain (penicillin-, cephalosporin- and quinolone-resistant)
Procedure: as §1, §2

P. aeruginosa ATCC 27853 = type: cell-based, Pseudomonas aeruginosa; conditions: Pseudomonas aeruginosa, ATCC27853; quinolone-sensitive strain
Procedure: as §1, §2

Structure (SMILES)	MIC (S. aureus A798) [µg/mL]	MIC (E. coli ATCC25922) [µg/mL]	MIC (K. pneumoniae T6474) [µg/mL]	MIC (P. aeruginosa ATCC 27853) [µg/mL]
O=C1CSc2ccc(N3C[C@@H](CCNCc4cccc(-c5cccc(OC[C@@H]6CCN6)n5)c4)OC3=O)cc2N1 [Example $152, 6-[(R)-5-(2-{3-[6-((S)-1-azetidin-2-ylmethoxy)-pyridin-2-yl]-benzylamino}-ethyl)-2-oxo-oxazolidin-3-yl]-4H-benzo[1,4]thiazin-3-one]	4 (≈ 7.33 µM)	2 (≈ 3.67 µM)	4 (≈ 7.33 µM)	1 (≈ 1.83 µM)
CN1CCC(Oc2cccc(-c3cccc(CNCC[C@H]4CN(c5ccc6c(n5)NC(=O)CO6)C(=O)O4)c3)n2)CC1 [Example $127, 6-[(S)-5-(2-{3-[6-(1-methyl-piperidin-4-yloxy)-pyridin-2-yl]-benzylamino}-ethyl)-2-oxo-oxazolidin-3-yl]-4H-pyrido[3,2-b][1,4]oxazin-3-one]	1 (≈ 1.79 µM)	2 (≈ 3.58 µM)	8 (≈ 14.3 µM)	4 (≈ 7.16 µM)
CN1CC[C@H]1COc1cccc(-c2cccc(CNCC[C@H]3CN(c4ccc5c(n4)NC(=O)CO5)C(=O)O3)c2)n1 [Example $123, 6-[(S)-5-(2-{3-[6-((S)-1-methyl-azetidin-2-ylmethoxy)-pyridin-2-yl]-benzylamino}-ethyl)-2-oxo-oxazolidin-3-yl]-4H-pyrido[3,2-b][1,4]oxazin-3-one]	0.25 (≈ 0.459 µM)	1 (≈ 1.84 µM)	1 (≈ 1.84 µM)	1 (≈ 1.84 µM)
O=C1COc2ccc(N3C[C@@H](CCNCc4cccc(-c5cccc(OC[C@@H]6CCN6)n5)c4)OC3=O)nc2N1 [Example $151, 6-[(R)-5-(2-{3-[6-((S)-1-azetidin-2-ylmethoxy)-pyridin-2-yl]-benzylamino}-ethyl)-2-oxo-oxazolidin-3-yl]-4H-pyrido[3,2-b][1,4]oxazin-3-one]	4 (≈ 7.54 µM)	2 (≈ 3.77 µM)	2 (≈ 3.77 µM)	1 (≈ 1.88 µM)
CN1CC(Oc2cccc(-c3cc(CNCC[C@H]4CN(c5ccc6c(n5)NC(=O)CO6)C(=O)O4)ccn3)n2)C1 [Example $185, 6-[(S)-5-(2-{[6′-(1-methyl-azetidin-3-yloxy)-[2,2′]bipyridinyl-4-ylmethyl]-amino}-ethyl)-2-oxo-oxazolidin-3-yl]-4H-pyrido[3,2-b][1,4]oxazin-3-one]	0.125 (≈ 0.235 µM)	0.5 (≈ 0.941 µM)	0.5 (≈ 0.941 µM)	1 (≈ 1.88 µM)
O=C1COc2ccc(N3C[C@H](CCNCc4cccc(-c5cccc(OCCN6CCCC6)n5)c4)OC3=O)nc2N1 [Example 9, 6-[(S)-2-oxo-5-(2-{3-[6-(2-pyrrolidin-1-yl-ethoxy)-pyridin-2-yl]-benzylamino}-ethyl)-oxazolidin-3-yl]-4H-pyrido[3,2-b][1,4]oxazin-3-one]	0.125 (≈ 0.224 µM)	2 (≈ 3.58 µM)	1 (≈ 1.79 µM)	2 (≈ 3.58 µM)
CN1CC[C@H]1COc1cccc(-c2cccc(CNCC[C@H]3CN(c4ccc5c(n4)NC(=O)CO5)C(=O)O3)c2)c1 [Example $104, 6-[(S)-5-(2-{[3′-((S)-1-methyl-azetidin-2-ylmethoxy)-biphenyl-3-ylmethyl]-amino}-ethyl)-2-oxo-oxazolidin-3-yl]-4H-pyrido[3,2-b][1,4]oxazin-3-one]	1 (≈ 1.84 µM)	2 (≈ 3.68 µM)	4 (≈ 7.36 µM)	4 (≈ 7.36 µM)
C[C@H]1C[C@H](Oc2cccc(-c3cccc(CNCC[C@H]4CN(c5ccc6c(n5)NC(=O)CO6)C(=O)O4)c3)n2)CN1C [Example $175, 6-[(S)-5-(2-{3-[6-((3S,5S)-1,5-dimethyl-pyrrolidin-3-yloxy)-pyridin-2-yl]-benzylamino}-ethyl)-2-oxo-oxazolidin-3-yl]-4H-pyrido[3,2-b][1,4]oxazin-3-one]	0.25 (≈ 0.448 µM)	2 (≈ 3.58 µM)	4 (≈ 7.16 µM)	4 (≈ 7.16 µM)

Continued by falling MIC (S. aureus A798), values first:

MIC (S. aureus A798) [µg/mL]	MIC (E. coli ATCC25922) [µg/mL]	MIC (K. pneumoniae T6474) [µg/mL]	MIC (P. aeruginosa ATCC 27853) [µg/mL]	Structure (SMILES)
8 (≈ 15.8 µM)	16 (≈ 31.6 µM)	8 (≈ 15.8 µM)	4 (≈ 7.91 µM)	NCCOc1cncc(-c2ccnc(CNCC[C@H]3CN(c4ccc5c(n4)NC(=O)CO5)C(=O)O3)c2)c1 [Example $159, 6-[(S)-5-(2-{[5-(2-amino-ethoxy)-[3,4′]bipyridinyl-2′-ylmethyl]-amino}-ethyl)-2-oxo-oxazolidin-3-yl]-4H-pyrido[3,2-b][1,4]oxazin-3-one]
2 (≈ 3.66 µM)	4 (≈ 7.32 µM)	2 (≈ 3.66 µM)	8 (≈ 14.6 µM)	CN1CC[C@H](Oc2cncc(-c3cccc(CNCC[C@H]4CN(c5ccc6c(n5)NC(=O)CO6)C(=O)O4)n3)n2)C1 [Example $145, 6-{(S)-5-[2-({6-[6-((S)-1-methyl-pyrrolidin-3-yloxy)-pyrazin-2-yl]-pyridin-2-ylmethyl}-amino)-ethyl]-2-oxo-oxazolidin-3-yl}-4H-pyrido[3,2-b][1,4]oxazin-3-one]
2	1	1	1	O=C1COc2ccc(N3C[C@H](CCNCc4cccc(-c5cccc(OC6CCNC6)c5)c4)OC3=O)nc2N1 (mixture of isomers) [Example $103, 6-[(S)-2-oxo-5-(2-{[3′-((RS)-pyrrolidin-3-yloxy)-biphenyl-3-ylmethyl]-amino}-ethyl)-oxazolidin-3-yl]-4H-pyrido[3,2-b][1,4]oxazin-3-one]
0.5 (≈ 0.895 µM)	2 (≈ 3.58 µM)	4 (≈ 7.16 µM)	4 (≈ 7.16 µM)	C[C@@H]1CN(C)C[C@H]1Oc1cccc(-c2cccc(CNCC[C@H]3CN(c4ccc5c(n4)NC(=O)CO5)C(=O)O3)c2)n1 (relative stereo) [Example $177, 6-[(S)-5-(2-{3-[6-((3S*,4R*)-1,4-dimethyl-pyrrolidin-3-yloxy)-pyridin-2-yl]-benzylamino}-ethyl)-2-oxo-oxazolidin-3-yl]-4H-pyrido[3,2-b][1,4]oxazin-3-one]
0.5	1	2	1	O=C1COc2ccc(N3C[C@H](CCNCc4cccc(-c5cccc(OCC6CNCCO6)n5)c4)OC3=O)nc2N1.O=CO (mixture of isomers) [Example $109, 6-[(S)-5-(2-{3-[6-((RS)-1-morpholin-2-ylmethoxy)-pyridin-2-yl]-benzylamino}-ethyl)-2-oxo-oxazolidin-3-yl]-4H-pyrido[3,2-b][1,4]oxazin-3-one formate]
0.5 (≈ 0.962 µM)	1 (≈ 1.92 µM)	1 (≈ 1.92 µM)	0.5 (≈ 0.962 µM)	CNCCOc1cncc(-c2cccc(CNCC[C@H]3CN(c4ccc5c(n4)NC(=O)CO5)C(=O)O3)c2)n1 [Example $164, 6-[(S)-5-(2-{3-[6-(2-methylamino-ethoxy)-pyrazin-2-yl]-benzylamino}-ethyl)-2-oxo-oxazolidin-3-yl]-4H-pyrido[3,2-b][1,4]oxazin-3-one]
0.5 (≈ 0.964 µM)	1 (≈ 1.93 µM)	2 (≈ 3.86 µM)	1 (≈ 1.93 µM)	C[C@H](N)COc1cccc(-c2cccc(CNCC[C@H]3CN(c4ccc5c(n4)NC(=O)CO5)C(=O)O3)c2)n1 [Example 18, 6-[(S)-5-(2-{3-[6-((S)-2-amino-propoxy)-pyridin-2-yl]-benzylamino}-ethyl)-2-oxo-oxazolidin-3-yl]-4H-pyrido[3,2-b][1,4]oxazin-3-one]
0.5	0.5	1	0.5	C[C@H]1NC[C@H]1Oc1cccc(-c2cccc(CNCC[C@H]3CN(c4ccc5c(n4)NC(=O)CO5)C(=O)O3)c2)n1 (mixture of isomers) [Example $135, 6-[(S)-5-(2-{3-[6-((2RS,3RS)-2-methyl-azetidin-3-yloxy)-pyridin-2-yl]-benzylamino}-ethyl)-2-oxo-oxazolidin-3-yl]-4H-pyrido[3,2-b][1,4]oxazin-3-one]
0.5 (≈ 0.964 µM)	0.5 (≈ 0.964 µM)	2 (≈ 3.86 µM)	0.5 (≈ 0.964 µM)	CNCCOc1cccc(-c2cccc(CNCC[C@H]3CN(c4ccc5c(n4)NC(=O)CO5)C(=O)O3)c2)n1 [Example $163, 6-[(S)-5-(2-{3-[6-(2-methylamino-ethoxy)-pyridin-2-yl]-benzylamino}-ethyl)-2-oxo-oxazolidin-3-yl]-4H-pyrido[3,2-b][1,4]oxazin-3-one]
0.25 (≈ 0.448 µM)	1 (≈ 1.79 µM)	1 (≈ 1.79 µM)	1 (≈ 1.79 µM)	CN1CCC[C@@H]1COc1cccc(-c2cccc(CNCC[C@H]3CN(c4ccc5c(n4)NC(=O)CO5)C(=O)O3)c2)n1 [Example $171, 6-[(S)-5-(2-{3-[6-((R)-1-methyl-pyrrolidin-2-ylmethoxy)-pyridin-2-yl]-benzylamino}-ethyl)-2-oxo-oxazolidin-3-yl]-4H-pyrido[3,2-b][1,4]oxazin-3-one]
0.25	1	2	2	O=C1COc2ccc(N3C[C@H](CCNCc4cccc(-c5cccc(OCC6COCCN6)n5)c4)OC3=O)nc2N1.O=CO (mixture of isomers) [Example $110, 6-[(S)-5-(2-{3-[6-((RS)-1-morpholin-3-ylmethoxy)-pyridin-2-yl]-benzylamino}-ethyl)-2-oxo-oxazolidin-3-yl]-4H-pyrido[3,2-b][1,4]oxazin-3-one formate]
0.25 (≈ 0.448 µM)	1 (≈ 1.79 µM)	2 (≈ 3.58 µM)	4 (≈ 7.16 µM)	CN1CCC[C@H]1COc1cccc(-c2cccc(CNCC[C@H]3CN(c4ccc5c(n4)NC(=O)CO5)C(=O)O3)c2)n1 [Example $130, 6-[(S)-5-(2-{3-[6-((S)-1-methyl-pyrrolidin-2-ylmethoxy)-pyridin-2-yl]-benzylamino}-ethyl)-2-oxo-oxazolidin-3-yl]-4H-pyrido[3,2-b][1,4]oxazin-3-one]
